26 compounds from patent US20250214990A1, “DIACYLGLYCEROL KINASE (DGK) ALPHA INHIBITORS AND USES THEREOF” (Insilico Medicine IP Limited, priority 2022, published 2025) can be followed below.

The term IC50 denotes the concentration that inhibits the measured activity by half. A high value points to a need for much substance.

T1 sequence (P23743 whole entry): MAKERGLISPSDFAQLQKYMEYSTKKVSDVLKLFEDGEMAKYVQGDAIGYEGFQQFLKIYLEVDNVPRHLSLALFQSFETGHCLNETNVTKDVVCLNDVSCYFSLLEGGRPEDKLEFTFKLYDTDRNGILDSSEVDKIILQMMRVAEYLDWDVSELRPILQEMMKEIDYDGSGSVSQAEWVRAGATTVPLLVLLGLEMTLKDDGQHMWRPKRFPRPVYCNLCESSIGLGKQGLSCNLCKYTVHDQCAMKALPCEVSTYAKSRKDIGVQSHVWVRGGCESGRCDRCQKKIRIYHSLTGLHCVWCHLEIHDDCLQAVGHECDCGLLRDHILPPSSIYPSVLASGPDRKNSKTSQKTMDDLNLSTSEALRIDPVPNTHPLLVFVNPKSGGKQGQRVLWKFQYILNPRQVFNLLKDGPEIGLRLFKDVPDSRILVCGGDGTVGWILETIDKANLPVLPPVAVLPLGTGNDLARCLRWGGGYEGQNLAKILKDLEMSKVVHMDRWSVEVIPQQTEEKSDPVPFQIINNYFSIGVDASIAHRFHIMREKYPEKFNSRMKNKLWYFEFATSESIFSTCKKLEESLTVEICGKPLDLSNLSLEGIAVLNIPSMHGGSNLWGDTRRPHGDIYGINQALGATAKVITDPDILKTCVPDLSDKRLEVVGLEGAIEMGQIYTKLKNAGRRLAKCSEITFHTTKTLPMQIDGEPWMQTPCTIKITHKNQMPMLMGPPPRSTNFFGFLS

This assay concerns the target T1, DGKA (Homo sapiens, UniProt P23743).
T1 construct: purchased SignalChem D21-10BG
Put plainly: DGKA Inhibition ADP-Glo Assay. The format is biochemical. As to conditions: 40 μM ATP. As for the experimental part: The DGKA inhibition reactions were performed using ADP-Glo assay. The reactions were carried out in 50 mM HEPES, 100 mM NaCl, 10 mM MgCl2, 1 mM CaCl2, 0.005% TritonX-100 and 1 mM DTT as working solution (pH=7.5). 30 nL DMSO solution of each test compound (Top concentration […] with 10 point, 4-fold dilution series for each compound) were transferred to 384 well plate by Echo and 5 μL DGKA (SignalChem, D21-10BG) enzyme working solution at 2× final reaction concentration was added to each well. After incubated at 25° C. for 15 minutes, 5 μL substrate working solution contain 40 μM ATP (Promega, V915B) and 200 µM DLG (SignalChem, D430-59) were added to initiate reaction. After enzymatic reaction at 25° C. for 60 min, ADP Glo assay reagents (Promega, V9102) were added and luminescence was recorded using an EnVision following the instruction of manual. […] The IC50 value was calculated via a regression analysis of the inhibition rate.
Regarding `Cn1c(=O)cc(N2CCOCc3c(C#CC4(C(F)(F)F)CC4)cccc32)c2nc(Cl)ccc21` [Example 1, 6-chloro-1-methyl-4-(6-((1-(trifluoromethyl)cyclopropyl)ethynyl)-2,3-dihydrobenzo[e][1,4]oxazepin-1(5H)-yl)-1,5-naphthyridin-2(1H)-one], the IC50 was less than 1 nM. The same measure for `Cn1c(=O)cc(N2CCOCc3c(C#CC4(C(F)(F)F)CC4)cccc32)c2nc(C#N)ccc21` [Example 2, 5-methyl-6-oxo-8-(6-((1-(trifluoromethyl)cyclopropyl)ethynyl)-2,3-dihydrobenzo[e][1,4]oxazepin-1(5H)-yl)-5,6-dihydro-1,5-naphthyridine-2-carbonitrile]: less than 1 nM. In turn, `Cn1c(=O)nc(N2CCOCc3c(C#CC4(C(F)(F)F)CC4)cccc32)c2cc(C#N)ccc21` [Example 6, 1-methyl-2-oxo-4-(6-((1-(trifluoromethyl)cyclopropyl)ethynyl)-2,3-dihydrobenzo[e][1,4]oxazepin-1(5H)-yl)-1,2-dihydroquinazoline-6-carbonitrile] registered an IC50 of less than 1 nM.

For the compound `Cn1c(=O)nc(N2CCOCc3c(C#CC4(C(F)(F)F)CC4)cccc32)c2nc(Cl)ccc21` [Example 7, 6-chloro-1-methyl-4-(6-((1-(trifluoromethyl)cyclopropyl)ethynyl)-2,3-dihydrobenzol[e][1,4]oxazepin-1(5H)-yl)pyrido[3,2-d]pyrimidin-2(1H)-one], the half-maximal inhibitory concentration (IC50) was less than 1 nM. In the case of `Cn1c(=O)nc(N2CCOCc3c(C#CC4(C(F)(F)F)CC4)cccc32)c2nc(C#N)ccc21` [Example 8] it was less than 1 nM. The same measure for `Cn1c(=O)nc(N2CCOCc3c(C#CC4(C(F)(F)F)CC4)cccc32)c2cc(Cl)c(NCCO)cc21` [Example 15, 6-chloro-7-((2-hydroxyethyl)amino)-1-methyl-4-(6-((1-(trifluoromethyl)cyclopropyl)ethynyl)-2,3-dihydrobenzo[e][1,4]oxazepin-1(5H)-yl)quinazolin-2(1H)-one]: less than 1 nM; for `Cn1c(=O)nc(N2CCOCc3c(C#CC4(C(F)(F)F)CC4)cccc32)c2cc(C#N)c(NCCO)cc21` [Example 16, 7-((2-hydroxyethyl)amino)-1-methyl-2-oxo-4-(6-((1-(trifluoromethyl)cyclopropyl)ethynyl)-2,3-dihydrobenzo[e][1,4]oxazepin-1(5H)-yl)-1,2-dihydroquinazoline-6-carbonitrile]: less than 1 nM; for `COCCOc1cc2c(cc1C#N)c(N1CCOCc3c(C#CC4(C(F)(F)F)CC4)cccc31)nc(=O)n2C` [Example 18, 7-(2-methoxyethoxy)-1-methyl-2-oxo-4-(6-((1-(trifluoromethyl)cyclopropyl)ethynyl)-2,3-dihydrobenzo[e][1,4]oxazepin-1(5H)-yl)-1,2-dihydroquinazoline-6-carbonitrile]: less than 1 nM. In the case of `Cn1c(=O)nc(N2CCOCc3c(C#CC4(C(F)(F)F)CC4)cccc32)c2cc(Cl)c(O[C@H]3CCOC3)cc21` [Example 21, (S)-6-chloro-1-methyl-7-((tetrahydrofuran-3-yl)oxy)-4-(6-((1-(trifluoromethyl)cyclopropyl)ethynyl)-2,3-dihydrobenzo[e][1,4]oxazepin-1(5H)-yl)quinazolin-2(1H)-one] it was less than 1 nM. Compound `Cn1c(=O)nc(N2CCOCc3c(C#CC4(C(F)(F)F)CC4)cccc32)c2cc(Cl)c(O[C@@H]3CCOC3)cc21` [Example 22, (R)-6-chloro-1-methyl-7-((tetrahydrofuran-3-yl)oxy)-4-(6-((1-(trifluoromethyl)cyclopropyl)ethynyl)-2,3-dihydrobenzo[e][1,4]oxazepin-1(5H)-yl)quinazolin-2(1H)-one] had a 50% inhibitory concentration (IC50) of less than 1 nM. `Cn1c(=O)nc(N2CCOCc3c(C#CC4(C(F)(F)F)CC4)cccc32)c2cc(C#N)c(O[C@H]3CCOC3)cc21` [Example 23, (S)-1-methyl-2-oxo-7-((tetrahydrofuran-3-yl)oxy)-4-(6-((1-(trifluoromethyl)cyclopropyl)ethynyl)-2,3-dihydrobenzo[e][1,4]oxazepin-1(5H)-yl)-1,2-dihydroquinazoline-6-carbonitrile]: the IC50 is less than 1 nM.

As for `Cn1c(=O)nc(N2CCOCc3c(C#CC4(C(F)(F)F)CC4)cccc32)c2cc(C#N)c(O[C@@H]3CCOC3)cc21` [Example 24, (R)-1-methyl-2-oxo-7-((tetrahydrofuran-3-yl)oxy)-4-(6-((1-(trifluoromethyl)cyclopropyl)ethynyl)-2,3-dihydrobenzo[e][1,4]oxazepin-1(5H)-yl)-1,2-dihydroquinazoline-6-carbonitrile], the IC50 is less than 1 nM.

In the case of `Cn1c(=O)nc(N2CCOCc3c(C#CC4(C(F)(F)F)CC4)cccc32)c2cc(C#N)c(OC3CCOCC3)cc21` [Example 26, 1-methyl-2-oxo-7-((tetrahydro-2H-pyran-4-yl)oxy)-4-(6-((1-(trifluoromethyl)cyclopropyl)ethynyl)-2,3-dihydrobenzo[e][1,4]oxazepin-1(5H)-yl)-1,2-dihydroquinazoline-6-carbonitrile], the IC50 was less than 1 nM.

As to `Cn1c(=O)nc(N2CCOCc3c(C#CC4(C(F)(F)F)CC4)cccc32)c2cc(Cl)c(OCCCO)cc21` [Example 27, 6-chloro-7-(3-hydroxypropoxy)-1-methyl-4-(6-((1-(trifluoromethyl)cyclopropyl)ethynyl)-2,3-dihydrobenzo[e][1,4]oxazepin-1(5H)-yl)quinazolin-2(1H)-one], the concentration for half-maximal inhibition (IC50) is less than 1 nM. The same measure for `Cn1c(=O)nc(N2CCOCc3c(C#CC4(C(F)(F)F)CC4)cccc32)c2cc(C#N)c(OCCCO)cc21` [Example 28, 7-(3-hydroxypropoxy)-1-methyl-2-oxo-4-(6-((1-(trifluoromethyl)cyclopropyl)ethynyl)-2,3-dihydrobenzo[e][1,4]oxazepin-1(5H)-yl)-1,2-dihydroquinazoline-6-carbonitrile]: less than 1 nM; for `Cn1c(=O)nc(N2CCOCc3c(C#CC4(C)CC4)cccc32)c2cc(Cl)c(OCCO)cc21` [Example 29, 6-chloro-7-(2-hydroxyethoxy)-1-methyl-4-(6-((1-methylcyclopropyl)ethynyl)-2,3-dihydrobenzo[e][1,4]oxazepin-1(5H)-yl)quinazolin-2(11H)-one]: less than 1 nM; for `Cn1c(=O)nc(N2CCOCc3c(C#CC4(C(F)(F)F)CC4)ccnc32)c2cc(Cl)c(OCCO)cc21` [Example 30, 6-chloro-7-(2-hydroxyethoxy)-1-methyl-4-(6-((1-(trifluoromethyl)cyclopropyl)ethynyl)-2,3-dihydropyrido[2,3-e][1,4]oxazepin-1(5H)-yl)quinazolin-2(1H)-one]: less than 1 nM. As for `Cn1c(=O)nc(N2CCOCc3c(C#CC4(C(F)(F)F)CC4)cncc32)c2cc(Cl)c(OCCO)cc21` [Example 31, 6-chloro-7-(2-hydroxyethoxy)-1-methyl-4-(6-((1-(trifluoromethyl)cyclopropyl)ethynyl)-2,3-dihydropyrido[3,4-e][1,4]oxazepin-1(5H)-yl)quinazolin-2(1H)-one], the IC50 is less than 1 nM.

Compound `Cn1c(=O)nc(N2CCOCc3c(C#CC4(C(F)(F)F)CC4)cccc32)c2cc(Cl)c(OC3CCNC3)cc21` (centres unmarked) [Example 34, 6-chloro-1-methyl-7-(pyrrolidin-3-yloxy)-4-(6-((1-(trifluoromethyl)cyclopropyl)ethynyl)-2,3-dihydrobenzo[e][1,4]oxazepin-1(5H)-yl)quinazolin-2(1H)-one] gave an IC50 of 1 to 10 nM. Compound `CN1CCC(Oc2cc3c(cc2Cl)c(N2CCOCc4c(C#CC5(C(F)(F)F)CC5)cccc42)nc(=O)n3C)C1` (centres unmarked) [Example 35, 6-chloro-1-methyl-7-((1-methylpyrrolidin-3-yl)oxy)-4-(6-((1-(trifluoromethyl)cyclopropyl)ethynyl)-2,3-dihydrobenzo[e][1,4]oxazepin-1(5H)-yl)quinazolin-2(1H)-one] came in with a half-inhibitory concentration (IC50) of 1 to 10 nM. Compound `Cn1c(=O)nc(N2CCOCc3ccccc32)c2cc(Cl)c(OCCO)cc21` [Example 36, 6-chloro-4-(2,3-dihydrobenzo[e][1,4]oxazepin-1(5H)-yl)-7-(2-hydroxyethoxy)-1-methylquinazolin-2(1H)-one] yielded an IC50 of 1 to 10 nM.

Compound `Cn1c(=O)nc(N2CCOCc3c(C4CC4)cccc32)c2cc(Cl)c(OCCO)cc21` [Example 37, 6-chloro-4-(6-cyclopropyl-2,3-dihydrobenzo[e][1,4]oxazepin-1(5H)-yl)-7-(2-hydroxyethoxy)-1-methylquinazolin-2(1H)-one] gave an IC50 of 1 to 10 nM. Regarding `Cc1cccc2c1COCCN2c1nc(=O)n(C)c2cc(OCCO)c(Cl)cc12` [Example 38, 6-chloro-7-(2-hydroxyethoxy)-1-methyl-4-(6-methyl-2,3-dihydrobenzo[e][1,4]oxazepin-1(5H)-yl)quinazolin-2(11H)-one], the half-inhibitory concentration (IC50) was 1 to 10 nM. The same measure for `C#Cc1cccc2c1COCCN2c1nc(=O)n(C)c2cc(OCCO)c(Cl)cc12` [Example 39, 6-chloro-4-(6-ethynyl-2,3-dihydrobenzo[e][1,4]oxazepin-1(5H)-yl)-7-(2-hydroxyethoxy)-1-methylquinazolin-2(1H)-one]: less than 1 nM; for `CC#Cc1cccc2c1COCCN2c1nc(=O)n(C)c2cc(OCCO)c(Cl)cc12` [Example 40, 6-chloro-7-(2-hydroxyethoxy)-1-methyl-4-(6-(prop-1-yn-1-yl)-2,3-dihydrobenzo[e][1,4]oxazepin-1(5H)-yl)quinazolin-2(1H)-one]: less than 1 nM. In the case of `COc1cccc2c1COCCN2c1nc(=O)n(C)c2cc(OCCO)c(Cl)cc12` [Example 42, 6-chloro-7-(2-hydroxyethoxy)-4-(6-methoxy-2,3-dihydrobenzo[e][1,4]oxazepin-1(5H)-yl)-1-methylquinazolin-2(1H)-one] it was 1 to 10 nM.
